Read-outs that look alike come from different tables or passages of the source. Values belong to the compound of their own block, whether it stands above or below them.
Legend:
[1] = target: GSK3α (GST-full length GSK3α) (Homo sapiens (Human), UniProt P49840); test: GSK3α TR-FRET kinase assay; assay type: biochemical
Summary of the method: (§1)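 Full-length GST-tagged human enzyme (1 nM) is exposed to test compound for 30 min before substrates are added. Phosphorylation of a primed biotinylated glycogen synthase peptide proceeds 100 min at room temperature at low ATP (4 μM α; 2 μM β) or high ATP (1 mM). Product is quantified by TR-FRET.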

[2] = target: GSK3b (GST-full length GSK3b) (Homo sapiens (Human), UniProt P49841); test: GSK3b TR-FRET kinase assay; assay type: biochemical
Summary of the method: as §1

[3] = 1 nM GSK3α, 4 μM ATP, 30 minute preincubation, Table 16, read-out: GSK3-A TR-FRET BIOCHEMICAL (TR-FRET)
[4] = GSK3-A (TR-FRET 1 mM ATP), GMean, IC50, 1 mM ATP, geometric mean
[5] = 1 nM GSK3b, 2 μM ATP, 30 minute preincubation, Table 16, read-out: GSK3-B TR-FRET BIOCHEMICAL (TR-FRET)
[6] = GSK3-B (TR-FRET 1 mM ATP), GMean, IC50, 1 mM ATP, geometric mean
[7] = 1 nM GSK3α, 4 μM ATP, 30 minute preincubation, geometric mean, read-out: GSK3-A TR-FRET BIOCHEMICAL (TR-FRET), GMean, IC50
[8] = 1 nM GSK3b, 2 μM ATP, 30 minute preincubation, geometric mean, read-out: GSK3-B TR-FRET BIOCHEMICAL (TR-FRET), GMean, IC50
[9] = 1 nM GSK3α, 4 μM ATP, 30 minute preincubation, Table 16, read-out: GSK3-A TR-FRET BIOCHEMICAL (TR-FRET), IC50
[10] = 1 nM GSK3b, 2 μM ATP, 30 minute preincubation, Table 16, read-out: GSK3-B TR-FRET BIOCHEMICAL (TR-FRET), IC50
[11] = 1 nM GSK3α, 4 μM ATP, 30 minute preincubation, read-out: GSK3-A TR-FRET BIOCHEMICAL (TR-FRET), IC50
[12] = 1 nM GSK3b, 2 μM ATP, 30 minute preincubation, read-out: GSK3-B TR-FRET BIOCHEMICAL (TR-FRET), IC50
[13] = read-out: GSK3-A (TR-FRET 1 mM ATP), GMean, IC50, 1 mM ATP, geometric mean
[14] = read-out: GSK3-B (TR-FRET 1 mM ATP), GMean, IC50, 1 mM ATP, geometric mean

Sequence of GSK3b (GST-full length GSK3b) (P49841 whole entry): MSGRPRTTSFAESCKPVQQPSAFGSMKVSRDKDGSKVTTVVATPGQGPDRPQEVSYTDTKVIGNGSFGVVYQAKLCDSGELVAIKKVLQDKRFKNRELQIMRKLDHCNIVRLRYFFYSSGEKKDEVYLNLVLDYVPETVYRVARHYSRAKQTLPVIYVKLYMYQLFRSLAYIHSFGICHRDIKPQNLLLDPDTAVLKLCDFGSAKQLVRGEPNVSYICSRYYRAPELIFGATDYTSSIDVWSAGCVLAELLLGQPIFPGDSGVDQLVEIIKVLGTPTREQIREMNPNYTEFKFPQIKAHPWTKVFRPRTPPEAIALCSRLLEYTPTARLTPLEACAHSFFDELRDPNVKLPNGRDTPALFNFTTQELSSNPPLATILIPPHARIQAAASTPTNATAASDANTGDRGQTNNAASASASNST
Sequence of GSK3α (GST-full length GSK3α) (P49840 whole entry): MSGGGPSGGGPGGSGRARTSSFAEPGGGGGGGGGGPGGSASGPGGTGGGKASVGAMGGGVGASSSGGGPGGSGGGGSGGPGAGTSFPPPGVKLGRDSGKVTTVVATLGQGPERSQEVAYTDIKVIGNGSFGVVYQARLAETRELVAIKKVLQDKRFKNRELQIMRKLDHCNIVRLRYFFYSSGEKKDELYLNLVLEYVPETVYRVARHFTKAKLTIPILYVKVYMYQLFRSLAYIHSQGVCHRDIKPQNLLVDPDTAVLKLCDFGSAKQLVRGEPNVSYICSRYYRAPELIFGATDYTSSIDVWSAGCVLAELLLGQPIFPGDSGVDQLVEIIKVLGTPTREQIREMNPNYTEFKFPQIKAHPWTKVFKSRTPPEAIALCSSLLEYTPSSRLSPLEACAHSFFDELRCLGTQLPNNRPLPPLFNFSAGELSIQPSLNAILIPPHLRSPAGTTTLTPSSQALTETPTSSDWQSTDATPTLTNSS

IC50 [1, 3]: ≤ 100 nM
IC50 [1, 4]: ≤ 100 nM
IC50 [2, 5]: ≤ 100 nM
IC50 [2, 6]: 100 to 1000 nM
SMILES: CC1(C)CC(=O)C2=C(C1)Nc1n[nH]cc1C21CCN(S(=O)(=O)c2cccc(Cl)c2F)CC1 [Compound 948118]

IC50 [1, 3]: ≤ 100 nM
IC50 [2, 5]: ≤ 100 nM
SMILES: CC1(C)CC(=O)C2=C(C1)Nc1n[nH]cc1C21CCN(S(=O)(=O)c2ccccc2Cl)CC1 [Compound 945655]

IC50 [1, 9]: 1000 to 5000 nM
IC50 [2, 10]: > 5000 nM
SMILES: CCc1cc(-c2cccc(C3(CC)C4=C(CC(C)(C)CC4=O)Nc4n[nH]cc43)c2)cc(CC)n1 (centres unmarked) [Compound 929445]

IC50 [1, 11]: ≤ 100 nM
IC50 [2, 12]: 100 to 1000 nM
SMILES: CCC1(c2cccc(-c3c(F)cncc3OC)c2)C2=C(CN(Cc3ccccc3)C2=O)Nc2n[nH]cc21 (centres unmarked) [Compound 948550]

IC50 [1, 7]: ≤ 100 nM
IC50 [2, 8]: ≤ 100 nM
SMILES: CC[C@@]1(c2cccc(-c3cnn4c3CCCC4)c2)C2=C(CC(C)(C)NC2=O)Nc2n[nH]c(C)c21 [Compound 947817]

IC50 [1, 9]: 1000 to 5000 nM
IC50 [2, 10]: > 5000 nM
SMILES: CCC1(c2cccc(N3CCc4ccncc43)c2)C2=C(CC(C)(C)CC2=O)Nc2n[nH]cc21 (centres unmarked) [Compound 912004]

IC50 [1, 3]: 100 to 1000 nM
IC50 [2, 5]: 1000 to 5000 nM
SMILES: CCC1(c2cccc(-c3ccnn3C)c2)C2=C(CC(C)(C)CC2=O)Nc2n[nH]c(C(F)(F)F)c21 (centres unmarked) [Compound 947365]

IC50 [1, 9]: ≤ 100 nM
IC50 [2, 10]: 100 to 1000 nM
SMILES: CCC1(c2cccc(-c3cn(C)nc3C)c2)C2=C(CC3(CCS(=O)(=O)CC3)NC2=O)Nc2n[nH]cc21 (centres unmarked) [Compound 950813]

IC50 [1, 9]: 1000 to 5000 nM
IC50 [2, 10]: 1000 to 5000 nM
SMILES: CC1(C)CC(=O)C2=C(C1)Nc1n[nH]cc1C21CN(c2ccncn2)C1 [Compound 909209]

IC50 [1, 7]: 100 to 1000 nM
IC50 [2, 8]: 1000 to 5000 nM
SMILES: CC[C@]1(c2cccc(-c3c(C)nn(C)c3C)c2)C2=C(CC(C)(C)NC2=O)Nc2n[nH]c(C)c21 [Compound 947573]

IC50 [1, 7]: 1000 to 5000 nM
IC50 [2, 8]: > 5000 nM
SMILES: CCC1(c2cccc(-c3c(F)cncc3F)c2)C2=C(CC(C)(C)NC2=O)Nc2n[nH]cc21 (centres unmarked) [Compound 948514]

IC50 [1, 3]: ≤ 100 nM
IC50 [2, 5]: ≤ 100 nM
SMILES: CC[C@]1(c2cccc(-c3cncn3C)c2)C2=C(CC(C)(C)CC2=O)Nc2n[nH]cc21 [Compound 945605]

IC50 [1, 9]: 100 to 1000 nM
IC50 [2, 10]: 100 to 1000 nM
SMILES: C[C@H]1CC(=O)C2=C(C1)Nc1n[nH]cc1C21CCOCC1 [Compound 912078]

IC50 [1, 3]: ≤ 100 nM
IC50 [1, 13]: 1000 to 5000 nM
IC50 [2, 5]: 1000 to 5000 nM
IC50 [2, 14]: > 5000 nM
SMILES: CC[C@@]1(c2cccc(-c3cnn(C)c3)c2)C2=C(Nc3n[nH]cc31)[C@H](F)C(C)(C)CC2=O [Compound 957505]

IC50 [1, 3]: ≤ 100 nM
IC50 [2, 5]: 100 to 1000 nM
SMILES: CCC1(c2cccc(-c3cnn4c3CCC4)c2)C2=C(CC(C)(C)CC2=O)Nc2n[nH]cc21 (centres unmarked) [Compound 947494]

IC50 [1, 9]: ≤ 100 nM
IC50 [2, 10]: ≤ 100 nM
SMILES: CCC1(c2cccc(N(C)c3ncccn3)c2)C2=C(CC(C)(C)NC2=O)Nc2n[nH]c(C(F)F)c21 (centres unmarked) [Compound 950484]

IC50 [1, 3]: ≤ 100 nM
IC50 [2, 5]: 100 to 1000 nM
SMILES: CC1(C)CC2=C(C(=O)C1F)[C@]1(CC[C@@H](C(F)(F)F)CC1)c1c[nH]nc1N2 (some centres unmarked) [Compound 917134]

IC50 [1, 11]: ≤ 100 nM
IC50 [2, 12]: 100 to 1000 nM
SMILES: CCC1(c2cccc(-c3cn[nH]c3)c2)C2=C(CC(C)(C)NC2=O)Nc2n[nH]cc21 (centres unmarked) [Compound 944022]

IC50 [1, 11]: 100 to 1000 nM
IC50 [2, 12]: 1000 to 5000 nM
SMILES: CCC1(c2cccc(C(C)(C)F)c2)C2=C(CCN(C)C2=O)Nc2n[nH]cc21 (centres unmarked) [Compound 913178]

IC50 [1, 11]: ≤ 100 nM
IC50 [2, 12]: ≤ 100 nM
SMILES: CC1CCC(C(=O)N2CC3(C2)CC2(CO3)C3=C(CC(C)(C)CC3=O)Nc3n[nH]cc32)C1 (centres unmarked) [Compound 947268]

IC50 [1, 7]: > 5000 nM
IC50 [2, 8]: > 5000 nM
SMILES: CCC1(c2cccc(-c3ccnc(C)c3)c2)C2=C(CC3(CCCC3)NC2=O)Nc2n[nH]cc21 (centres unmarked) [Compound 948641]

IC50 [1, 11]: ≤ 100 nM
IC50 [2, 12]: 1000 to 5000 nM
SMILES: CCC1(c2cccc(-c3ccnc(C)c3)c2)C2=C(CC(C)(C)NC2=O)Nc2n[nH]cc21 (centres unmarked) [Compound 914930]

Second part, the compound before the results:

SMILES: CC[C@@]1(c2cccc(-c3ccncc3F)c2)C2=C(CC(C)(C)NC2=O)Nc2n[nH]c(C)c21 [Compound 947821]
IC50 [1, 7]: ≤ 100 nM
IC50 [2, 8]: ≤ 100 nM

SMILES: CC1(C)CC(=O)C2=C(C1)Nc1n[nH]cc1C2(C)C [Compound 786065]
IC50 [1, 9]: 1000 to 5000 nM
IC50 [2, 10]: > 1670 nM

SMILES: CC[C@@]1(c2ccccc2)C2=C(C[C@]3(CCOC3)CC2=O)Nc2n[nH]cc21 [Compound 816882]
IC50 [1, 7]: > 5000 nM
IC50 [2, 8]: > 5000 nM

SMILES: CCC1(c2cccc(-c3ccncc3C)c2)C2=C(CC(C)(COC)NC2=O)Nc2n[nH]cc21 (centres unmarked) [Compound 948147]
IC50 [1, 7]: ≤ 100 nM
IC50 [2, 8]: ≤ 100 nM

SMILES: CCC1(c2cccc(C(F)(F)F)c2)C2=C(Nc3n[nH]cc31)c1ccccc1C2=O (centres unmarked) [Compound 948205]
IC50 [1, 9]: ≤ 100 nM
IC50 [1, 4]: 100 to 1000 nM
IC50 [2, 10]: ≤ 100 nM
IC50 [2, 6]: 100 to 1000 nM

SMILES: CC[C@]1(c2cccc(-c3ccnc(C(F)F)c3)c2)C2=C(CC(C)(C)CC2=O)Nc2n[nH]cc21 [Compound 943919]
IC50 [1, 3]: ≤ 100 nM
IC50 [2, 5]: 100 to 1000 nM

SMILES: CCC1(c2cccc(-c3ccnc(C)c3)c2)C2=C(CC(C)(C)CC2=O)Nc2n[nH]c(C)c21 (centres unmarked) [Compound 913018]
IC50 [1, 9]: ≤ 100 nM
IC50 [1, 13]: 100 to 1000 nM
IC50 [2, 10]: ≤ 100 nM
IC50 [2, 14]: 1000 to 5000 nM

SMILES: CCC1(c2cccc(C3CCOC3)c2)C2=C(CC(C)(C)CC2=O)Nc2n[nH]cc21 (centres unmarked) [Compound 889565]
IC50 [1, 9]: 100 to 1000 nM
IC50 [2, 10]: 1000 to 5000 nM

SMILES: CC1(C)CC(=O)C2=C(C1)Nc1n[nH]cc1C21CCN(S(=O)(=O)c2cccc(C(F)F)c2)CC1 [Compound 947264]
IC50 [1, 11]: ≤ 100 nM
IC50 [1, 4]: ≤ 100 nM
IC50 [2, 12]: ≤ 100 nM
IC50 [2, 6]: 100 to 1000 nM

SMILES: CC1(C)CC(=O)C2=C(C1)Nc1n[nH]cc1C21CCC(C(=O)N2CCCC2)CC1 (centres unmarked) [Compound 945396]
IC50 [1, 3]: 100 to 1000 nM
IC50 [2, 5]: 100 to 1000 nM

SMILES: CC[C@]1(c2cccc(S(=O)(=O)C(C)C)c2)C2=C(CC(C)(C)NC2=O)Nc2n[nH]c(C(F)(F)F)c21 [Compound 948419]
IC50 [1, 7]: ≤ 100 nM
IC50 [1, 13]: ≤ 100 nM
IC50 [2, 8]: ≤ 100 nM
IC50 [2, 14]: ≤ 100 nM

SMILES: CC[C@]1(c2cccc(C(F)F)c2)C2=C(CC(C)(C)NC2=O)Nc2n[nH]cc21 [Compound 949006]
IC50 [1, 7]: ≤ 100 nM
IC50 [1, 13]: 100 to 1000 nM
IC50 [2, 8]: 100 to 1000 nM
IC50 [2, 14]: > 5000 nM

SMILES: CCC1(c2cccc(-c3ccnn3C)c2)C2=C(Nc3n[nH]cc31)C(F)C(C)(C)CC2=O (centres unmarked) [Compound 957509]
IC50 [1, 3]: 100 to 1000 nM
IC50 [2, 5]: > 5000 nM

SMILES: COc1ccc(S(=O)(=O)N2CCC3(CC2)C2=C(CC(C)(C)CC2=O)Nc2n[nH]cc23)c(F)c1 [Compound 947255]
IC50 [1, 11]: ≤ 100 nM
IC50 [1, 4]: ≤ 100 nM
IC50 [2, 12]: ≤ 100 nM
IC50 [2, 6]: 100 to 1000 nM

SMILES: CC1(C)CC(=O)C2=C(C1)Nc1n[nH]cc1C21CN(Cc2ccccc2)C1 [Compound 929436]
IC50 [1, 9]: > 5000 nM
IC50 [2, 10]: > 5000 nM

SMILES: CC1(C)CC(=O)C2=C(C1)Nc1n[nH]cc1[C@]21CCOC(C)(C)C1 [Compound 924298]
IC50 [1, 9]: 1000 to 5000 nM
IC50 [2, 10]: 1000 to 5000 nM

SMILES: CCC1(c2cccc(-c3cncn3C)c2)C2=C(CC(C)(C)CC2=O)Nc2n[nH]cc21 (centres unmarked) [Compound 945620]
IC50 [1, 3]: 100 to 1000 nM
IC50 [2, 5]: 1000 to 5000 nM

SMILES: Cc1ccc(C(=O)N2CC3(C2)CC2(CO3)C3=C(CC(C)(C)CC3=O)Nc3n[nH]cc32)c(C)c1 (centres unmarked) [Compound 947294]
IC50 [1, 11]: ≤ 100 nM
IC50 [2, 12]: 100 to 1000 nM

SMILES: CC[C@@]1(c2cccc(C(F)(F)F)c2)C2=C(CCN(c3cc(C)n(C)n3)C2=O)Nc2n[nH]cc21 [Compound 951939]
IC50 [1, 9]: ≤ 100 nM
IC50 [2, 10]: 100 to 1000 nM

— patent US20250313563A1, “GLYCOGEN SYNTHASE KINASE 3 INHIBITORS AND USES THEREOF” (The Broad Institute, Inc., priority 2022, published 2025)
